# From patent US20250051347A1, “BIFUNCTIONAL CHIMERIC HETEROCYCLIC COMPOUND AND USE THEREOF AS ANDROGEN RECEPTOR DEGRADER” (Hinova Pharmaceuticals, Inc., priority 2021, published 2025)
# Target: T1, androgen receptor (AR) splicing variant AR-v7 (Homo sapiens, UniProt P10275)
# T1 construct: The degradation activity of compounds on AR-v7 in 22RV1 cells; host or cells: 22RV1 cells
# T1 sequence (P10275 1-644 isoform P10275-3): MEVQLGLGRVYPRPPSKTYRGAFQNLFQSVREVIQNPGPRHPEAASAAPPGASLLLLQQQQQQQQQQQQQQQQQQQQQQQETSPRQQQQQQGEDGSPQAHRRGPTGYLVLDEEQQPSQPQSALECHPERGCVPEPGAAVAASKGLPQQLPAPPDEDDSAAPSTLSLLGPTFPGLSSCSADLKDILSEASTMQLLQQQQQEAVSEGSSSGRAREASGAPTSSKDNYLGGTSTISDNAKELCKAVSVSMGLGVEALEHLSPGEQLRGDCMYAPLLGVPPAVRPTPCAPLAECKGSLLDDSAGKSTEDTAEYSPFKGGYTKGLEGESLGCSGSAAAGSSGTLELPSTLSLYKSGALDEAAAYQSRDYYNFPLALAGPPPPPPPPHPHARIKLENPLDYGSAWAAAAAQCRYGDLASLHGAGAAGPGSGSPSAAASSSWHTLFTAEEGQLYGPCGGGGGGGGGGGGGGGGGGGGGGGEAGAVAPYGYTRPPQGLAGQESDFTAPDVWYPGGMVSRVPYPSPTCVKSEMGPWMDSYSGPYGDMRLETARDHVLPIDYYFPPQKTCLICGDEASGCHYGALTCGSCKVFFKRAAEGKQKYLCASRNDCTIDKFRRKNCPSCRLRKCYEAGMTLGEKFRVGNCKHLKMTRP
# Assay: Degradation activity on androgen receptor splicing variant AR-v7 in 22RV1 cells (ELISA)
# Type: cell-based
# Settings: AR-v7 degradation in 22RV1 cells, 48 h, class symbols
row,DC50 [nM],SMILES
1,101 to 1000,"Cc1nc(-c2ccc(Oc3ccc(C(C)(C)c4ccc(OC5CC(Nc6ccc7c(c6)C(=O)N(C6CCC(=O)N(C)C6=O)C7=O)C5)cc4)cc3)nn2)no1 (stereo not drawn) [Example 335, 5-((1r,3r)-3-(4-(2-(4-((6-(5-methyl-1,2,4-oxadiazol-3-yl)pyridazine-3-yl)oxy)phenyl)propan-2-yl)phenoxy)cyclobutyl)amino)-2-(1-methyl-2,6-dioxopiperidin-3-yl)isoindolin-1,3-dione]"
2,11 to 100,Cc1nc(-c2cnc(Oc3ccc(C(C)(C)c4ccc(O[C@H]5C[C@@H](Nc6ccc7c(c6)C(=O)N(C6CCC(=O)NC6=O)C7=O)C5)cc4)cc3)nc2)no1 (stereo partly drawn) [Example 336]
3,11 to 100,Cc1nc(-c2ccc(Oc3ccc(C(C)(C)c4ccc(O[C@H]5C[C@@H](Nc6ccc7c(c6)C(=O)N(C6CCC(=O)NC6=O)C7=O)C5)cc4)cc3)nn2)no1 (stereo partly drawn) [Example 337]
4,11 to 100,CC(O)c1ncc(Oc2ccc(C(C)(C)c3ccc(OC[C@@H]4CCN4c4ccc5c(c4)C(=O)N(C4CCC(=O)NC4=O)C5=O)cc3)cc2)cn1 (stereo partly drawn) [Example 340]
5,11 to 100,"CC(=O)c1ncc(Oc2ccc(C(C)(C)c3ccc(OC[C@@H]4CCN4c4ccc5c(c4)C(=O)N(C4CCC(=O)NC4=O)C5=O)cc3)cc2)cn1 (stereo partly drawn) [Example 341, 5-((S)-2-((4-(2-(4-((2-acetylpyrimidin-5-yl)oxy)phenyl)propan-2-yl)phenoxy)methyl)azetidin-1-yl)-2-(2,6-dioxopiperidin-3-yl)isoindolin-1,3-dione]"
6,1000 to 5000,"CC(=O)c1nccc(COc2ccc(C(C)(C)c3ccc(OCCCNc4cccc5c4C(=O)N(C4CCC(=O)NC4=O)C5=O)cc3)cc2)n1 (stereo not drawn) [Example 344, 4-((3-(4-(2-(4-((2-acetylpyrimidin-4-yl)methoxy)phenyl)isopropan-2-yl)phenoxy)propyl)amino)-2-(2,6-dioxopiperidin-3-yl)isoindolin-1,3-dione]"
7,1000 to 5000,"CC(O)c1nccc(COc2ccc(C(C)(C)c3ccc(OCCCNc4cccc5c4C(=O)N(C4CCC(=O)NC4=O)C5=O)cc3)cc2)n1 (stereo not drawn) [Example 346, 2-(2,6-dioxopiperidin-3-yl)-4-((3-(4-(2-(4-((2-(1-hydroxylethyl)pyrimidin-4-yl)methoxy)phenyl)isopropan-2-yl)phenoxy)propyl)amino)isoindolin-1,3-dione]"
8,1000 to 5000,"CC(=O)c1cc(COc2ccc(C(C)(C)c3ccc(OCCCCCCCCOCCCCNc4ccc5c(c4)C(=O)N(C4CCC(=O)NC4=O)C5=O)cc3)cc2)ccn1 (stereo not drawn) [Example 347, 5-((4-((8-(4-(2-(4-((2-acetylpyridin-4-yl)methoxy)phenyl)isopropan-2-yl)phenoxy)octyl)oxy)butyl)amino)-2-(2,6-dioxopiperidin-3-yl)isoindolin-1,3-dione]"
9,1000 to 5000,"CC(=O)c1cc(COc2ccc(C(C)(C)c3ccc(OCCCCCCCCOCCCCNc4cccc5c4C(=O)N(C4CCC(=O)NC4=O)C5=O)cc3)cc2)ccn1 (stereo not drawn) [Example 348, 4-((4-((8-(4-(2-(4-((2-acetylpyridin-4-yl)methoxy)phenyl)isopropan-2-yl)phenoxy)octyl)oxy)butyl)amino)-2-(2,6-dioxopiperidin-3-yl)isoindolin-1,3-dione]"
10,11 to 100,"NC(=O)c1noc(COc2ccc(C3(c4ccc(OCCCNc5ccc6c(c5)C(=O)N(C5CCC(=O)NC5=O)C6=O)cc4)CCC3)cc2)n1 (stereo not drawn) [Example 352, 5-((4-(1-(4-(3-((2-(2,6-dioxopiperidin-3-yl)-1,3-dioxoisoindolin-5-yl)amino)propoxy)phenyl)cyclobutyl)phenoxy)methyl)-1,2,4-oxadiazol-3-carbonylamine]"
11,1000 to 5000,"CC(=O)c1nccc(COc2ccc(C(C)(C)c3ccc(O[C@H]4CC[C@H](Nc5ccc6c(c5)C(=O)N(C5CCC(=O)NC5=O)C6=O)CC4)cc3)cc2)n1 (stereo partly drawn) [Example 353, 5-(((1r,4r)-4-(4-(2-(4-((2-acetylpyrimidin-4-yl)methoxy)phenyl)isopropan-2-yl)phenoxy)cyclohexyl)amino)-2-(2,6-dioxopiperidin-3-yl)isoindolin-1,3-dione]"
12,1000 to 5000,"CC(O)c1nccc(COc2ccc(C(C)(C)c3ccc(O[C@H]4CC[C@H](Nc5ccc6c(c5)C(=O)N(C5CCC(=O)NC5=O)C6=O)CC4)cc3)cc2)n1 (stereo partly drawn) [Example 354, 2-(2,6-dioxopiperidin-3-yl)-5-(((1r,4r)-4-(4-(2-(4-((2-(1-hydroxylethyl)pyrimidin-4-yl)methoxy)phenyl)isopropan-2-yl)phenoxy)cyclohexyl)amino)isoindolin-1,3-dione]"
13,11 to 100,"CC(C)(c1ccc(OCc2ccnc(OC3CCOCC3)n2)cc1)c1ccc(O[C@H]2C[C@H](Nc3ccc4c(c3)C(=O)N(C3CCC(=O)NC3=O)C4=O)C2)cc1 (stereo partly drawn) [Example 368, 2-(2,6-dioxopiperidin-3-yl)-5-(((1r,3r)-3-(4-(2-(4-((2-((tetrahydro-2H-pyran-4-yl)oxy)pyrimidin-4-yl)methoxy)phenyl)isopropan-2-yl)phenoxy)cyclobutyl)amino)isoindolin-1,3-dione]"
14,11 to 100,"O=C1CCC(N2C(=O)c3ccc(N[C@H]4C[C@H](Oc5ccc(C6(c7ccc(Oc8ccc(-n9nccn9)nn8)cc7)CC6)cc5)C4)cc3C2=O)C(=O)N1 (stereo partly drawn) [Example 374, 5-(((1r,3r)-3-(4-(1-(4-((6-(2H-1,2,3-triazole-2-yl)pyridazine-3-yl)oxy)phenyl)cyclopropyl)phenoxy)cyclobutyl)amino)-2-(2,6-dioxopiperidin-3-yl)isoindolin-1,3-dione]"
15,11 to 100,"O=C1CCC(N2C(=O)c3ccc(N[C@H]4C[C@H](Oc5ccc(C6(c7ccc(Oc8ccc(-n9ccnn9)nn8)cc7)CC6)cc5)C4)cc3C2=O)C(=O)N1 (stereo partly drawn) [Example 375, 5-(((1r,3r)-3-(4-(1-(4-((6-(1H-1,2,3-triazole-1-yl)pyridazine-3-yl)oxy)phenyl)cyclopropyl)phenoxy)cyclobutyl)amino)-2-(2,6-dioxopiperidin-3-yl)isoindolin-1,3-dione]"
16,11 to 100,"Cc1nc(-c2ccc(Oc3ccc(C4(c5ccc(O[C@H]6C[C@H](Nc7ccc8c(c7)C(=O)N(C7CCC(=O)NC7=O)C8=O)C6)cc5)CC4)cc3)nn2)no1 (stereo partly drawn) [Example 376, 2-(2,6-dioxopiperidin-3-yl)-5-(((1r,3r)-3-(4-(1-(4-((6-(5-methyl-1,2,4-oxadiazol-3-yl)pyridazine-3-yl)oxy)phenyl)cyclopropyl)phenoxy)cyclobutyl)amino)isoindolin-1,3-dione]"
17,11 to 100,"CCOC(=O)c1ncc(Oc2ccc(C(C)(C)c3ccc(O[C@H]4C[C@H](Nc5ccc6c(c5)C(=O)N(C5CCC(=O)NC5=O)C6=O)C4)cc3)cc2)cn1 (stereo partly drawn) [Example 381, ethyl 5-(4-(2-(4-((1r,3r)-3-((2-(2,6-dioxopiperidin-3-yl)-1,3-dioxoisoindolin-5-yl)amino)cyclobutyloxy)phenyl)isopropan-2-yl)phenoxy)pyrimidin-2-carboxylate]"
18,1000 to 5000,"CC(=O)c1nccc(COc2ccc(C(C)(C)c3ccc(OCCCCCCCCCNc4cccc5c4C(=O)N(C4CCC(=O)NC4=O)C5=O)cc3)cc2)n1 (stereo not drawn) [Example 386, 4-((9-(4-(2-(4-((2-acetylpyrimidin-4-yl)methoxy)phenyl)propan-2-yl)phenoxy)nonyl)amino)-2-(2,6-dioxopyridin-3-yl)isoindol-1,3-dione]"
19,11 to 100,"CC(C)(c1ccc(OCCCNc2ccc3c(c2)C(=O)N(C2CCC(=O)NC2=O)C3=O)cc1)c1ccc(OCc2ccnc(-n3cccn3)n2)cc1 (stereo not drawn) [Example 387, 5-((3-(4-(2-(4-((2-(1H-pyrazol-1-yl)pyrimidin-4-yl)methoxy)phenyl)propan-2-yl)phenoxy)propyl)amino)-2-(2,6-dioxopiperidin-3-yl)isoindol-1,3-dione]"
20,11 to 100,CC(C)(c1ccc(OCCCNc2ccc3c(c2)C(=O)N(C2CCC(=O)NC2=O)C3=O)cc1)c1ccc(OCc2nc(C(N)=O)co2)cc1 (stereo not drawn) [Example 388]

# Same assay, conditions: AR-v7 degradation in 22RV1 cells, 48 h, numeric values
row,DC50 [nM],SMILES
1,> 10000,"CC(=O)c1nccc(COc2ccc(C(C)(C)c3ccc(OCCCCCNc4ccc5c(c4)C(=O)N(C4CCC(=O)NC4=O)C5=O)cc3)cc2)n1 (stereo not drawn) [Example 342, 5-((5-(4-(2-(4-((2-acetylpyrimidin-4-yl)methoxy)phenyl)isopropan-2-yl)phenoxy)pentyl)amino)-2-(2,6-dioxopiperidin-3-yl)isoindolin-1,3-dione]"
2,> 10000,"CC(=O)c1cccc(COc2ccc(C(C)(C)c3ccc(OCCCCCCCCOCCCCNc4ccc5c(c4)C(=O)N(C4CCC(=O)NC4=O)C5=O)cc3)cc2)n1 (stereo not drawn) [Example 349, 5-((4-((8-(4-(2-(4-((6-acetylpyridin-2-yl)methoxy)phenyl)isopropan-2-yl)phenoxy)octyl)oxy)tert-butyl)amino)-2-(2,6-dioxopiperidin-3-yl)isoindolin-1,3-dione]"
3,> 5000,CN1CCC2(CCN(c3nccc(COc4ccc(C(C)(C)c5ccc(OCCCCCCCCOCCCCNc6ccc7c(c6)C(=O)N(C6CCC(=O)NC6=O)C7=O)cc5)cc4)n3)C2)C1 (stereo not drawn) [Example 384]
4,> 2000,"CC(=O)c1ncc(COc2ccc(C(C)(C)c3ccc(OCCCCCCCCOCCCCNc4ccc5c(c4)C(=O)N(C4CCC(=O)NC4=O)C5=O)cc3)cc2)cn1 (stereo not drawn) [Example 385, 5-((4-((8-(4-(2-(4-((2-acetylpyrimidin-5-yl)methoxy)phenyl)propan-2-yl)phenoxy)octyl)oxy)butyl)amino)-2-(2,6-dioxopiperidin-3-yl)isoindol-1,3-dione]"
